In one data set the target is CYP2C19 (Homo sapiens (Human), UniProt P33261). The experiment in a line: Inhibition of cytochrome P450 isoenzymes, CYP2C19. As to conditions: >50 μM: inhibitory effect less than 50% at 50 μM; read-out: CYP 2C19 IC50. The format is in vitro ADME. The protocol: (§1) 4.1 Experimental Purpose: To test the inhibitory effects of the compounds of the present disclosure on different isoforms of human cytochrome P450 isoenzymes
(§2) 1) The activities of CYP1A2, 2C9, 2C19, 2D6, and 3A4 were measured using a standard substrate method. In each reaction, the enzyme activities were measured in the presence and absence of the substance to be tested, wherein a single sample was measured at a total of eight test concentrations. A 5-in-1 mixed inhibitor was used.
(§3) 2) An incubation matrix comprising microsomes, a substrate, and an inhibitor or the compound to be tested was pre-incubated at 37° C. for 5 minutes, and then NADPH was added to start the reaction.
(§4) 3) After the incubation, acetonitrile with an internal standard was added to stop the reaction.
(§5) 4) Metabolites generated by the substrates were measured by using the LC-MS/MS method, and the peak area ratio of each metabolite to the internal standard was evaluated and the inhibition rate and IC50 were calculated.

The target of another data set is CYP2C9 (Homo sapiens (Human), UniProt P11712). The experiment in a line: Inhibition of cytochrome P450 isoenzymes, CYP2C9. The format is in vitro ADME. Particulars: >50 μM: inhibitory effect less than 50% at 50 μM; read-out: CYP 2C9 IC50. Here is the method: as §1, §2, §3, §4, §5
Data set [1] in a line: Pharmacokinetics of the compounds in rats. The format is in vivo, rat. Particulars: for Apparent Clearance Cl: male SD rats, single IV, mg/Kg: Comparative Compound 1 1.80, (+)-5 2.40, (+)-16 1.76, HCl salt of (+)-23 1.71; for Vd / AUC(0-inf) / half-life / C0 / Kp at […]: male, SD, rat, iv; for Vd / AUC(0-inf) / half-life / C0: plasma; for Vd: read-out: Apparent Distribution Volume Vd; for AUC(0-inf): read-out: Area under the Curve AUC0-inf; for half-life: read-out: Hal-life T1/2 (converted); for C0: read-out: Initial Concentration C0; for Kp at […]: brain/plasma, read-out: Brain/Plasm Ratio B/P ratio. Here is the method:
6.1 Experimental Purpose: To measure, using a LC/MS/MS method, the medicament concentrations of the compound in plasma and specific tissues at different time points after the compound was administered by a single intravenous injection (IV) to 7-9-week-old male SD rats used as test animals, to study on the pharmacokinetic behavior of the compound of the present disclosure in rats, and to evaluate the pharmacokinetic characteristics thereof. 6.2 Compound Formulation
Each of them was formulated at a concentration of 1 mg/mL and was used for IV (intravenous injection) administration.
The actual weights of the rats were weighed on the day of administration and volumes to be administered were calculated. The above formulated solutions to be administered were administered by injection into caudal veins of rats.
About 0.2 mL of whole blood samples were collected by means of jugular vein puncture at the time set in the experimental protocol, and the actual blood collection time was recorded in the experimental records. All the blood samples were added to labeled plastic centrifuge tubes to which K2-EDTA anticoagulant was added in advance. After the blood samples were collected, they were centrifuged at 3,000 g for 10 minutes at 4° C. to prepare the supernatant plasma, and the plasma was stored at −20° C. or a lower temperature for LC-MS/MS analysis.
The concentrations of the compounds in rat plasma were measured by using high-performance liquid chromatography-tandem mass spectrometry (LC-MS/MS). The retention durations of the compounds and internal standard, chromatogram acquisition, and integration of chromatograms were processed using the software Analyst (Applied Biosystems), and data statistics were processed using the software Watson LIMS (Thermo Fisher Scientific) or Analyst (Applied Biosystems). The plasma concentration was processed using a non-compartmental model of WinNonlin™ Version 6.3 (Pharsight, Mountain View, Calif.) which was a pharmacokinetic software, and the pharmacokinetic parameters were calculated using a linear logarithmic trapezoidal method.

Data set [2] can be described thus: Metabolic stability in liver microsomes. Format: in vitro ADME. Particulars: pH 7.4; human liver microsomes 0.5 mg protein/mL; 45 mg microsome protein/g liver, 20 g liver/kg; read-out: Intrinsic Clearance CLint(liver) in Human Liver. The protocol:
Test 3: Metabolic Stability in Liver Microsomes
3.1 Experimental Purpose: To test the metabolic stability of the compounds of the present disclosure in human liver microsomes
a. All samples as well as testosterone, diclofenac and propafenone acting as reference substances were dissolved in DMSO to a storage concentration of 10 mM.
b. Intermediate Solution: 5 μL of the substance to be tested or the reference substance was diluted with 45 μL of DMSO (with 450 μL of 1:1 methanol/water).
c. Working Solution: the intermediate solution was diluted with 450 μL of 100 mM potassium phosphate buffer solution (pH 7.4).
Assay Buffer: 100 mM potassium phosphate buffer (pH 7.4) • 10 mM MgCl2
Liver Microsome Solution (final concentration: 0.5 mg protein/mL):
Human liver microsomes, obtained from BD, Cat No. 452117, Lot No. 38291
b. 10 μL of the working solution containing the substance to be tested or the reference substance was added to each of plates (T0, T5, T10, T20, T30, T60, NCF60).
c. The liver microsome solution was dispensed into a 96-well plate in an amount of 680 μL/well, then 80 was added, and then T was added to each of the plates. The above incubation plate was placed at 37° C. and pre-incubated for approximately 10 minutes.
d. 10 μL of 100 mM potassium phosphate buffer was added to each well in the NCF60 plate.
e. After the pre-incubation was finished, the NADPH regeneration system working solution was dispensed into the 96-well plate in an amount of 90 μL/well, and then added to each of the plates in an amount of 10 μL/well to start the reaction.
f. The plates were incubated for an appropriate time (e.g., 5, 10, 20, 30, or 60 minutes).
g. The stop solution (refrigerated at 4° C., containing 100 ng/mL Tolbutamide and 100 ng/mL Labetalol) was added to each sample well in an amount of 300 μL/well.
h. The sample plates were shaken well for about 10 minutes and centrifuged at 4,000 rpm for 20 minutes at 4° C. During the centrifugation, 300 μL of HPLC water was added to each well, and 100 μL of the supernatant was taken for LC-MS/MS analysis.
T1/2 and Clint(mic) were calculated by the following formula: […]
Each gram of liver contained 45 mg of microsome protein, and the liver weight was 20 g/kg in a human.
Ct was the concentration at time t, t was the incubation time, C0 was the concentration at time 0, Ke was an elimination rate constant, Clint(mic) was the intrinsic clearance in liver microsomes, and Clint(liver) was the intrinsic clearance in liver. CLint(mic)=0.693/half-life/mg of microsome protein per mL(concentration of microsomes during incubation) CLint(liver)=CLint(mic)×mg of microsome protein/g of liver weight×a ratio of liver weight to body weight 3.4 Test Results
(Liver microsomes are a subcellular fraction often used to study metabolism.)

A further data set has as its target CYP3A4 (Homo sapiens (Human), UniProt P08684). Put plainly: Inhibition of cytochrome P450 isoenzymes, CYP3A4. Format: in vitro ADME. Particulars: >50 μM: inhibitory effect less than 50% at 50 μM; read-out: CYP 3A4 IC50. Here is the method: as §1, §2, §3, §4, §5

Counter-ions that a name gives are not always drawn. A value given as a limit tells only on which side of the number the result lay.

As usually defined, the IC50 is the concentration that gives 50% inhibition.

Sequence of CYP3A4 (P08684 whole entry): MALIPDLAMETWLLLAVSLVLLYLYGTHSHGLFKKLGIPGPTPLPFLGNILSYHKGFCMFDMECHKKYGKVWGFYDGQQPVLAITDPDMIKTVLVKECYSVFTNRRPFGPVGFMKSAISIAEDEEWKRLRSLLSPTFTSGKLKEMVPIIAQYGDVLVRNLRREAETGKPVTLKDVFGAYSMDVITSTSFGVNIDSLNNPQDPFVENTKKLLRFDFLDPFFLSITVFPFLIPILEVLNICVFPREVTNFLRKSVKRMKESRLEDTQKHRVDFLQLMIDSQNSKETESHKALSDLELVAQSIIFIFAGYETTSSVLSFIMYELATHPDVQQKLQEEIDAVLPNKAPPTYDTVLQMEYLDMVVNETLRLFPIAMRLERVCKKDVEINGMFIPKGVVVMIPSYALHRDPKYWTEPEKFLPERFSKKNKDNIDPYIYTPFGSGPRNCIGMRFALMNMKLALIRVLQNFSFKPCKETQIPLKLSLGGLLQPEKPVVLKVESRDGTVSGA
Sequence of CYP2C19 (P33261 whole entry, canonical isoform): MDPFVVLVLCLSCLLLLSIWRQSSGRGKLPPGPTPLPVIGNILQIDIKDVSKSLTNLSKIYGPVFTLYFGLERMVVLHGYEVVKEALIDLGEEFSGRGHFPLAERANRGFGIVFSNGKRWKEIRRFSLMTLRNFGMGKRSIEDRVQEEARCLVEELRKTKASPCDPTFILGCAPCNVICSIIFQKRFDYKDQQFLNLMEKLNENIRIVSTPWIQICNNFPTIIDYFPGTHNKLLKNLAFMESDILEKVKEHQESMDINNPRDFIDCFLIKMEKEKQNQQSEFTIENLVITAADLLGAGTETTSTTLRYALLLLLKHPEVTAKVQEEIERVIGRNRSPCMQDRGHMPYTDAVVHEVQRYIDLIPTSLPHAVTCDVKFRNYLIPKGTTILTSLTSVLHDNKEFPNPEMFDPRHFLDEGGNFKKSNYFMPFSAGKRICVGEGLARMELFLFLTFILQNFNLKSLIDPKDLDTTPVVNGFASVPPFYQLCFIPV
Sequence of CYP2C9 (P11712 whole entry): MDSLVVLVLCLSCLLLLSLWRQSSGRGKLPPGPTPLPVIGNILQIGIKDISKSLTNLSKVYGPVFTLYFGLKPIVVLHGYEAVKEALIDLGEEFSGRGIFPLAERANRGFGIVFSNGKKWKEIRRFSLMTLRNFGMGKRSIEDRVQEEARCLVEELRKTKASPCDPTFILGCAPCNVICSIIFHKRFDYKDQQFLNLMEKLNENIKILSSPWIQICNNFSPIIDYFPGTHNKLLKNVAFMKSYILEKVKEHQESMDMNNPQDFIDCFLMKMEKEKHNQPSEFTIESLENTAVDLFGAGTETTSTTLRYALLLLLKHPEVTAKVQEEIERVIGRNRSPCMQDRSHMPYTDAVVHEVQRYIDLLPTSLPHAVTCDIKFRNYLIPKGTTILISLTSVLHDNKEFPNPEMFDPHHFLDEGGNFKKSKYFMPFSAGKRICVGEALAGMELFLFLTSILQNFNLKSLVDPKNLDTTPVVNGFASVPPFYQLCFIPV

Consider `COc1ccsc1CNCC[C@@]1(c2ccccn2)CCOC2(CCCC2)C1` [compound 1, Oliceridine, reference compound], for which the IC50 on CYP2C19 is over 50 µM. The IC50 at CYP2C9 is over 50 µM. Further, in data set [1], the “Apparent Clearance Cl” value was 74.4 mL/min/kg, the Vd is 4.3 L/kg, the AUC(0-inf) came out at 1.15 µM·h and the half-life is 48 min. Also, the C0 in data set [1] was 1900 nM. The CLint scaled in data set [2] was found to be 314 mL/min/kg.
For the compound `c1ccc([C@]2(CCNCc3scc4c3CCC4)CCO[C@]3(CCOC3)C2)nc1` [(+)-2], the IC50 on CYP2C19, at CYP2C9 and at CYP3A4 was over 50 µM throughout. In addition, the CLint scaled in data set [2] is 49 mL/min/kg.
As for `Fc1ccc([C@]2(CCNCc3cccc(F)c3)CCO[C@]3(CCOC3)C2)nc1` [Hydrochloride Salt of (+)-23], the IC50 on CYP2C19 was over 50 µM. Besides, the IC50 at CYP2C9 is over 50 µM. Besides, in data set [1], the “Apparent Clearance Cl” value stood at 113 mL/min/kg, the Kp at […] is 2.2, the Vd came out at 5 L/kg and the AUC(0-inf) came out at 0.763 µM·h. Also, in data set [1], the half-life was 42 min and the C0 is 1550 nM. In addition, the CLint scaled in data set [2] worked out at 15.6 mL/min/kg. The IC50 at CYP3A4 is over 50 µM.
With `Cc1cccc(CNCC[C@@]2(c3ccc(F)cn3)CCO[C@]3(CCOC3)C2)c1` [Hydrochloride Salt of (+)-22], the IC50 at CYP2C19, on CYP2C9 and at CYP3A4 was over 50 µM throughout. The CLint scaled in data set [2] turned out to be 13.5 mL/min/kg.
Take `Fc1ccc([C@]2(CCNCc3cccc(Cl)c3)CCO[C@]3(CCOC3)C2)nc1` [(+)-16]: the 50% inhibitory concentration (IC50) at CYP2C19 was 33.7 µM. For the same compound, the 50% inhibitory concentration (IC50) on CYP2C9 is over 50 µM. Besides, in data set [1], the “Apparent Clearance Cl” value was determined as 114 mL/min/kg, the Kp at […] is 4.61, the Vd turned out to be 6.3 L/kg and the AUC(0-inf) is 0.723 µM·h. For the same compound, in data set [1], the half-life was 54 min and the C0 was found to be 979 nM. Further, in data set [2], the CLint scaled amounted to 29.2 mL/min/kg. Besides, at CYP3A4, the IC50 was 40.6 µM.

These data come from patent US11124523B2, “2,6-dioxaspiro [4,5] decane derivatives and preparation method therefor and pharmaceutical applications thereof” (SHANDONG LUYE PHARMACEUTICAL CO., LTD., priority 2017, dated 2021).
